Measured values from patent publication US20040033213A1, “Methods of modulating dendritic cells using adjuvants” (Corixa Corporation, priority 2002, published 2004).

Tests used:
Format in all cases: cell-based
[1] = system: Human d7 Cultured Dendritic Cells; experiment: Flow cytometry phenotype analysis of human d7 cultured dendritic cells after 24 h stimulation; settings: LPS 10 ng/ml, others 100 ng/ml; for HLA-DR MFI: 7 day DCs, 24 h stimulation
[2] = system: 6-7 day cultured human dendritic cells; experiment: ELISA of cytokines (IL-12 p40, IL-12 p70, TNF-α) in 22 h induction supernatants of cultured human dendritic cells; settings: for IL-12 p40 / IL-12 p70 / TNF-α: 22 Hrs
Source text: Recent articles have described how human dendritic cells can be derived in vitro from CD14 positive monocyte precursors in peripheral blood. A “buffy coat” preparation can now be commonly obtained from a unit of normal human peripheral blood from a blood bank on request. The leukocyte fraction was harvested from this buffy coat preparation using standard ficoll centrifugation techniques. Subsequently, the leukocyte fraction was labeled with anti-CD 14 antibody coupled to magnetic microbeads. This preparation was then passed over a magnet (Miltanyi Biotech) and CD14 positive monocytes were collected. These CD14 positive monocyte precursors were then cultured for 5-7 days in vitro (5×10^5 cells/ml) with GM-CSF (20 ng/ml) for the duration of the culture. […] After the 24 hour in vitro stimulation culture, cells were washed twice and stained with a panel of monoclonal antibodies specific for different cell surface activation and co-receptor molecules found on mature, activated DCs.
Supernatants from DCs stimulated with LPS, MPL® immunostimulant-S, RC-527, RC-529, and RC-544 were collected and tested by ELISA analysis for cytokines.

[3] = system: cultured human dendritic cells (DC); experiment: Flow cytometry of cell surface activation markers on human DCs restimulated 72 hours with AGPs (titration)
Method: Dendritic cells are developed in-vitro from human CD14+ monocyte precursors using standard 7 day GM-CSF ([…]) and IL-4 ([…]) culture conditions. The cultured DCs are >90% CD11c^+/HLA-DR^+/lineage^− by flow cytometry analysis. FIGS. 15-18 show the results of flow cytometry analysis of gated CD11c^+/HLA-DR^+/lineage^− human DCs after they were restimulated in-vitro for 72 hours in the presence of selected AGPs at a titration range of 0.1 μg/ml-2 μg/ml. Data is expressed as the percent of gated DCs which are positive for the indicated marker (y-axis) versus the logo10 of the AGP or lipid A concentration. R595 LPS was used in each induction at 10 ng/ml as a positive control—the negative control was unstimulated human dendritic cells cultured for 72 hours in the same medium conditions used for AGP stimulation. Data was analyzed using non-linear regression analysis—all data was modeled using a 3rd order polynomial to determiine the best curve fit.

[4] = system: cultured human DCs + autologous T cells
[5] = Exp. # 092398, Day 7, LPS 10 ng/ml, others 100 ng/ml
[6] = Exp. # 093098, LPS 10 ng/ml, others 100 ng/ml
[7] = single analysis, one normal donor

SMILES: CCCCCCCCCCCC(CC(=O)NC(COC1OC(CO)C(OP(=O)(O)O)C(OC(=O)CC(CCCCCCCCCCC)OC(=O)CCCCCCCCC)C1NC(=O)CC(CCCCCCCCCCC)OC(=O)CCCCCCCCC)C(=O)O)OC(=O)CCCCCCCCC (stereo not drawn) [RC-527]
- CD 1a % positive cells ([1]; Exp. 091698, 24 h): 93.5%
- CD 1a MFI ([1]; Exp. 091698, 24 h): 8.71
- CD 4 % positive cells ([1]; Exp. 091698, 24 h): 69.5%
- CD 4 MFI ([1]; Exp. 091698, 24 h): 2.33
- CD 14 % positive cells ([1]; Exp. 091698, 24 h): 4.2%
- CD 35 % positive cells ([1]; Exp. 091698, 24 h): 49.4%
- CD 35 MFI ([1]; Exp. 091698, 24 h): 2.74
- CD 40 MFI ([1]; Exp. 091698, 24 h): 43.0
- CD 44 MFI ([1]; Exp. 091698, 24 h): 329
- CD 54 MFI ([1]; Exp. 091698, 24 h): 34.9
- CD 62 L % positive cells ([1]; Exp. 091698, 24 h): 11.2%
- CD 69 % positive cells ([1]; Exp. 091698, 24 h): 16.1%
- CD 80 % positive cells ([1]; Exp. 091698, 24 h): 99.5%
- CD 80 MFI ([1]; Exp. 091698, 24 h): 8.37
- CD 83 % positive cells ([1]; Exp. 091698, 24 h): 97.0%
- CD 83 MFI ([1]; Exp. 091698, 24 h): 3.52
- CD 86 % positive cells ([1]; Exp. 091698, 24 h): 99.8%
- CD 86 MFI ([1]; Exp. 091698, 24 h): 18.1
- CD 95 % positive cells ([1]; Exp. 091698, 24 h): 93.6%
- CD 95 MFI ([1]; Exp. 091698, 24 h): 1.61
- HLA-DR MFI ([1]; Exp. 091698): 74.2
- CD 1a % positive cells ([1]; Exp. 092398, 24 h): 84.1%
- CD 1a MFI ([1]; Exp. 092398, 24 h): 5.57
- CD 4 % positive cells ([1]; Exp. 092398, 24 h): 69.5%
- CD 4 MFI ([1]; Exp. 092398, 24 h): 2.66
- CD 14 % positive cells ([1]; Exp. 092398, 24 h): 4.3%
- CD 35 % positive cells ([1]; Exp. 092398, 24 h): 65.1%
- CD 35 MFI ([1]; Exp. 092398, 24 h): 3.02
- CD 40 MFI ([1]; Exp. 092398, 24 h): 35.0
- CD 54 MFI ([1]; Exp. 092398, 24 h): 42.6
- CD 62 L % positive cells ([1]; Exp. 092398, 24 h): 13.6%
- CD 69 % positive cells ([1]; Exp. 092398, 24 h): 10.5%
- CD 80 % positive cells ([1]; Exp. 092398, 24 h): 99.4%
- CD 80 MFI ([1]; Exp. 092398, 24 h): 12.7
- CD 83 % positive cells ([1]; Exp. 092398, 24 h): 97.6%
- CD 83 MFI ([1]; Exp. 092398, 24 h): 3.57
- CD 86 % positive cells ([1]; Exp. 092398, 24 h): 99.9%
- CD 86 MFI ([1]; Exp. 092398, 24 h): 28.0
- CD 95 % positive cells ([1]; Exp. 092398, 24 h): 94.8%
- CD 95 MFI ([1]; Exp. 092398, 24 h): 1.78
- αC5aR + GAR Alexa % positive cells ([1]; Exp. 092398, 24 h): 42.3%
- CD 44 MFI ([1]; Exp. 092398, 24 h, values printed with a trailing +): 499+
- GAR-Alexa % positive cells ([1]; Exp. 092398, 24 h, secondary reagent staining): 2.9%
- HLA-DR MFI ([1]; Exp. 092398): 107.8
- CCR 6 % positive cells ([1]; Exp. 093098, 24 h): 4.0%
- CD 1a % positive cells ([1]; Exp. 093098, 24 h): 80.3%
- CD 1a MFI ([1]; Exp. 093098, 24 h): 6.83
- CD 3 % positive cells ([1]; Exp. 093098, 24 h): 28.5%
- CD 3 MFI ([1]; Exp. 093098, 24 h): 3.89
- CD 4 % positive cells ([1]; Exp. 093098, 24 h): 75.2%
- CD 4 MFI ([1]; Exp. 093098, 24 h): 3.06
- CD 11c % positive cells ([1]; Exp. 093098, 24 h): 92.6%
- CD 11c MFI ([1]; Exp. 093098, 24 h): 6.77
- CD 14 % positive cells ([1]; Exp. 093098, 24 h): 3.3%
- CD 40 MFI ([1]; Exp. 093098, 24 h): 34.9
- CD 54 MFI ([1]; Exp. 093098, 24 h): 47.0
- CD 62 L % positive cells ([1]; Exp. 093098, 24 h): 3.0%
- CD 80 % positive cells ([1]; Exp. 093098, 24 h): 98.9%
- CD 80 MFI ([1]; Exp. 093098, 24 h): 13.1
- CD 83 % positive cells ([1]; Exp. 093098, 24 h): 92.6%
- CD 83 MFI ([1]; Exp. 093098, 24 h): 3.63
- CD 86 % positive cells ([1]; Exp. 093098, 24 h): 99.5%
- CD 86 MFI ([1]; Exp. 093098, 24 h): 27.4
- CD 123 % positive cells ([1]; Exp. 093098, 24 h): 52.9%
- CD 123 MFI ([1]; Exp. 093098, 24 h): 1.99
- αC5aR + Alexa 488 % positive cells ([1]; Exp. 093098, 24 h): 42.7%
- αC5aR + Alexa 488 MFI ([1]; Exp. 093098, 24 h): 8.17
- HLA-DR MFI ([1]; Exp. 093098): 172.9
- IL-12 p40 ([2]; Exp. # 091698, LPS 10 ng/ml, others 100 ng/ml): 202,200 pg/mL/5 × 10^5 Cells
- IL-12 p70 ([2]; Exp. # 092398 (second line, Day7), LPS 10 ng/ml, others 100 ng/ml): 201.4 pg/ml/5 × 10^5 Cells
- IL-12 p40 [2, 5]: 163,000 pg/mL/5 × 10^5 Cells
- TNF-α [2, 5]: 10,750 pg/mL/5 × 10^5 Cells
- IL-12 p70 ([2]; Exp. # 092398 as printed (first line of section), LPS 10 ng/ml, others 100 ng/ml): 194.0 pg/ml/5 × 10^5 Cells
- IL-12 p70 ([2]; Exp. # 092398 as printed (third line of section), LPS 10 ng/ml, others 100 ng/ml): 168.9 pg/ml/5 × 10^5 Cells
- TNF-α ([2]; Exp. # 093098 (third line of section), LPS 10 ng/ml, others 100 ng/ml): 7,020 pg/mL/5 × 10^5 Cells
- IL-12 p40 [2, 6]: 107,600 pg/mL/5 × 10^5 Cells
- TNF-α [2, 6]: 4,000 pg/mL/5 × 10^5 Cells
- IL-12 (p40) expression (in words) ([2]; all three experiments, LPS 10 ng/ml, others 100 ng/ml): in every case a potent stimulator of IL-12 (p40)
- IL-12 (p70) (in words) ([2]; the one donor in which LPS and MPL-S gave a significant amount): high levels of IL-12 (p70)
- IL-12 (p70) expression (in words) ([2]; the other two experiments (different normal donors)): significant levels of IL-12 (p70) expression
- TNF-α secretion (in words) ([2]; three donors): very strong TNF-α effect in all three donors
- cell surface expression of CD80 (in words) ([3]; 72 hours, titration 0.1-2 μg/ml, FIG. 15): highest level of increased cell surface expression
- DC expression of CD83 (in words) ([3]; 72 hours, titration 0.1-2 μg/ml, FIG. 16): highest DC expression levels
- cell surface expression of CD40 (in words) ([3]; 72 hours, titration 0.1-2 μg/ml, FIG. 17): highest elevated cell surface expression
- concentration at which the effect is usually already maximized [3, 7]: 100 ng/mL
- overall induction of DC maturation and co-stimulatory molecule expression (in words) [3, 7]: strongest induction of DC maturation and co-stimulatory molecule expression of all the AGPs tested
- T cell proliferation / DC activation, CPM 3H-thymidine response (in words) [4]: highest levels of DC activation compared to MPL® immunostimulant
